Experimental data taken from patent EP4796130A1, “ANTI-TISSUE FACTOR ANTIBODY-DRUG CONJUGATE COMPRISING CAMPTOTHECIN DERIVATIVE” (Celltrion, Inc., priority 2023, dated 2025).
Read-outs that look alike come from different tables or passages of the source. Where a SMILES comes first, the peptide text is derived from it. [ ]: non-standard residue; d: D form. The star is where a group is joined. Dolaproine = CO[C@@H]([C@@H]1CCCN1)[C@@H](C)C(=O)O; Dil = CC[C@H](C)[C@H](NC)[C@@H](CC(=O)O)OC; X1 = C[C@@H](N*)[C@@H](O)c1ccccc1; NMeV = CN[C@H](C(=O)O)C(C)C

Key:
Type in all cases: cell-based
[1] = system: MCF-7 (a breast cancer cell line); assay: In-vitro cell viability assay (CellTiter-Glo); conditions: MCF7a, 144 h
[2] = system: T47D (a breast cancer cell line); assay: cells; conditions: Homo sapiens, 144 h
[3] = system: A431 (a skin cancer cell line); assay: In-vitro cell viability assay (CellTiter-Glo); conditions: Homo sapiens, A-431, 144 h
[4] = system: HPAF-II (a pancreatic cancer cell line); assay: In-vitro cell viability assay (CellTiter-Glo); conditions: Homo sapiens, 144 h
[5] = system: KYSE-520 (an esophageal cancer cell line); assay: In-vitro cell viability assay (CellTiter-Glo); conditions: Homo sapiens
[6] = system: Caski (a cervical cancer cell line); assay: In-vitro cell viability assay (CellTiter-Glo); conditions: Homo sapiens, Ca-Ski, 144 h
[7] = 6 days incubation, read-out: IC50

CC[C@@]1(O)C(=O)OCc2c1cc1n(c2=O)Cc2c-1nc1cc3c(c4c1c2[C@@H](NC(=O)[C@@H](C)O)CC4)OCO3 [PBX-7016]
IC50 [1]: 6.02 nM | IC50 [2]: 0.46 nM | IC50 [3]: 1.94 nM | IC50 [4]: 2.87 nM | IC50 ([5]; KYSE-520, 144 h): 2.06 nM | IC50 [6]: 0.75 nM

CC[C@H](C)[C@@H]([C@@H](CC(=O)N1CCC[C@H]1[C@H](OC)[C@@H](C)C(=O)N[C@H](C)[C@@H](O)c1ccccc1)OC)N(C)C(=O)[C@@H](NC(=O)[C@@H](NC)C(C)C)C(C)C [MMAE, monomethyl auristatin E] (H-[NMeV]V[Dil][Dolaproine]-X1)
IC50 ([1]; MCF-7, 6 days incubation, read-out: IC50): 0.82 nM | IC50 [2, 7]: 0.16 nM | IC50 ([3]; A431, 6 days incubation, read-out: IC50): 0.032 nM | IC50 [4, 7]: 0.045 nM | IC50 ([5]; 144 h, KYSE-520, 6 days incubation, read-out: IC50): 0.12 nM | IC50 ([6]; Caski, 6 days incubation, read-out: IC50): 0.034 nM
